The target of one data set is IRAK4 (Homo sapiens (Human), UniProt Q9NWZ3). In words: IRAK4 Inhibition Assay. It counts as biochemical. Particulars: ATP 500 μM; IRAK4 0.6 nM. In a few lines:
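Mobility-shift kinase assay: 0.6 nM IRAK4, 500 μM ATP, 1.5 μM fluorescent peptide, 60 min, room temperature. Percent inhibition was normalised between enzyme-free and DMSO-only wells.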

Data set [1] deals with Human whole blood stimulated with a TLR2 agonist (lipoteichoic acid), IL-6 levels. Put plainly: IRAK4 Whole Blood Assay. Particulars: lipoteichoic acid 10 μg/mL. Type of data set: cell-based. In a few lines:
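IL-6 was quantified by cytometric bead assay in supernatants of human blood (ACD-A) stimulated for 5 h with lipoteichoic acid at 10 μg/mL final. Compound exposure preceded stimulation for 60 min at 37 °C, 5% CO2.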

Data set [2] is described as follows: Caco-2 Permeability Assay. Particulars: human, Caco-2, test compound 3 μM. It counts as in vitro ADME. In a few lines:
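Bidirectional permeability measured over 2 h at 37° C, compound dosed at 3 μM in the donor compartment (apical for absorptive, basolateral for secretive) with plain buffer as receiver.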
A general note: Passage across Caco-2 layers is used to estimate intestinal permeability.

Structures can show the parent of a compound that is named as a salt. Some results are limits rather than exact numbers.

IRAK4, sequence (Q9NWZ3 whole entry, species assumed): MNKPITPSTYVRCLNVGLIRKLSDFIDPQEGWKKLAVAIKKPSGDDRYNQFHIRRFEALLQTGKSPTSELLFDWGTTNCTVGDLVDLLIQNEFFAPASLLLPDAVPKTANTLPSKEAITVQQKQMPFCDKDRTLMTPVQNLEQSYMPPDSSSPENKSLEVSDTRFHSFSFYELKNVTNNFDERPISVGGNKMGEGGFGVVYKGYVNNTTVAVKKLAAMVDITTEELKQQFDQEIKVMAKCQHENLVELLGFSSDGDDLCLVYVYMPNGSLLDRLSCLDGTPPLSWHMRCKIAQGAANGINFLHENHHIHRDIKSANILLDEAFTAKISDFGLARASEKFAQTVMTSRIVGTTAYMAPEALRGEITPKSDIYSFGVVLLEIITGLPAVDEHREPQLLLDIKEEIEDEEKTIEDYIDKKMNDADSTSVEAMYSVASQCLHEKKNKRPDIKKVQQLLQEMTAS

On to `CC(C)Nc1cc(-n2ccc3cc(C#N)cnc32)ncc1-c1cn(CCN2CCOCC2)nn1` [Example 163, 1-(4-(isopropylamino)-5-(1-(2-morpholinoethyl)-1H-1,2,3-triazol-4-yl)pyridin-2-yl)-1H-pyrrolo[2,3-b]pyridine-5-carbonitrile, 2TFA], for which the IC50 at IRAK4 came to 2 nM. For the same compound, the EC50 in data set [1] (Homo sapiens) was 600 nM. This compound yielded a Papp at 2 h, 3 µM in data set [2] of 19.5 ×10⁻⁶ cm/s.
For `CC(=O)N1CC(c2cc(-c3cnc(-n4ncc5cc(C#N)cnc54)cc3NC(C)C)on2)C1` [Example 398, 1-(5-(3-(1-acetylazetidin-3-yl)isoxazol-5-yl)-4-(isopropylamino)pyridin-2-yl)-1H-pyrazolo[3,4-b]pyridine-5-carbonitrile], the IC50 on IRAK4 worked out at 4 nM. The same compound showed an EC50 in data set [1] (Homo sapiens) of 300 nM. The Papp at 2 h, 3 µM in data set [2] turned out to be 6.9 ×10⁻⁶ cm/s.
Take `CC(C)(O)CCc1cn(-c2cnc(-n3ncc4cc(C#N)cnc43)cc2NC2CCC(F)C2)nn1` (stereo not drawn) [Example 364, 1-(4-((3-fluorocyclopentyl)amino)-5-(4-(3-hydroxy-3-methylbutyl)-1H-1,2,3-triazol-1-yl)pyridin-2-yl)-1H-pyrazolo[3,4-b]pyridine-5-carbonitrile]: on IRAK4, the IC50 is 3 nM. The same compound showed an EC50 in data set [1] (Homo sapiens) of 250 nM. This compound returned a Papp at 2 h, 3 µM in data set [2] of 4.5 ×10⁻⁶ cm/s.
On the same counts, the results for `CCC(C)(O)Cc1cn(-c2cnc(-n3ncc4cc(C#N)cnc43)cc2NC(C)C)nn1` (stereo not drawn) [Example 318, 1-(5-(4-(2-hydroxy-2-methylbutyl)-1H-1,2,3-triazol-1-yl)-4-(isopropylamino)pyridin-2-yl)-1H-pyrazolo[3,4-b]pyridine-5-carbonitrile] are 25 nM, 790 nM and 10.8 ×10⁻⁶ cm/s.
Take `CCC(C)(O)Cn1cc(-c2cnc(-n3ncc4cc(C#N)cnc43)cc2NC(C)C)nn1` (single isomer, unassigned) [Example 92, 1-(5-(1-(2-hydroxy-2-methylbutyl)-1H-1,2,3-triazol-4-yl)-4-(isopropylamino)pyridin-2-yl)-1H-pyrazolo[3,4-b]pyridine-5-carbonitrile]: the IC50 at IRAK4 came to 11 nM. This compound came in with an EC50 in data set [1] of 1120 nM. For the same compound, in data set [2], the Papp at 2 h, 3 µM is 12.4 ×10⁻⁶ cm/s.
As to `[2H]C([2H])([2H])C(=O)N1CC(n2cc(-c3cnc(-n4ncc5cc(C#N)cnc54)cc3NC(C)C)nn2)C1` [Example 140, 1-(5-(1-(1-trideuteroacetylazetidin-3-yl)-1H-1,2,3-triazol-4-yl)-4-(isopropylamino)pyridin-2-yl)-1H-pyrazolo[3,4-b]pyridine-5-carbonitrile], the IC50 at IRAK4 came to 3 nM. Moreover, in data set [1] (Homo sapiens), the midpoint of the response, the EC50, lay at 360 nM. The compound also showed a Papp at 2 h, 3 µM in data set [2] below 1.5 ×10⁻⁶ cm/s.
The matching figures for `CC(O)Cc1cn(-c2cnc(-n3ncc4cc(C#N)cnc43)cc2NCC(C)(C)O)nn1` (stereo not drawn) [Example 264, 1-(4-((2-hydroxy-2-methylpropyl)amino)-5-(4-(2-hydroxypropyl)-1H-1,2,3-triazol-1-yl)pyridin-2-yl)-1H-pyrazolo[3,4-b]pyridine-5-carbonitrile]: 8 nM, 330 nM and 22.5 ×10⁻⁶ cm/s.
For `CC(C)Nc1cc(-n2ncc3cc(C#N)cnc32)ncc1-c1cc([C@@H]2COCCN2)on1` [Example 428, (S)-1-(4-(isopropylamino)-5-(5-(morpholin-3-yl)isoxazol-3-yl)pyridin-2-yl)-1H-pyrazolo[3,4-b]pyridine-5-carbonitrile], the IC50 on IRAK4 turned out to be 4 nM. The compound also gave an EC50 in data set [1] (Homo sapiens) of 460 nM. For the same compound, the Papp at 2 h, 3 µM in data set [2] came to 26.3 ×10⁻⁶ cm/s.
The matching figures for `CC(C)Nc1cc(-n2ncc3cc(C#N)c(N)nc32)ncc1-c1cn(C2CCCCC2)nn1` [Example 25, 6-amino-1-(5-(1-cyclohexyl-1H-1,2,3-triazol-4-yl)-4-(isopropylamino)pyridin-2-yl)-1H-pyrazolo[3,4-b]pyridine-5-carbonitrile]: 2 nM, 800 nM and 4.9 ×10⁻⁶ cm/s.
On to `CC(=O)N1CC(n2cc(-c3cnc(-n4ccc5cc(C#N)cnc54)cc3NC(C)C)nn2)C1` [Example 162, 1-(5-(1-(1-acetylazetidin-3-yl)-1H-1,2,3-triazol-4-yl)-4-(isopropylamino)pyridin-2-yl)-1H-pyrrolo[2,3-b]pyridine-5-carbonitrile, TFA], for which the half-maximal inhibitory concentration (IC50) at IRAK4 worked out at 4 nM. This compound also displayed an EC50 in data set [1] (Homo sapiens) of 440 nM. Further, the apparent permeability coefficient (Papp) at 2 h, 3 µM in data set [2] was determined as 17.1 ×10⁻⁶ cm/s.
`CC(F)Cc1cn(-c2cnc(-n3ncc4cc(C#N)cnc43)cc2NC(C)C)nn1` (single isomer, unassigned) [Example 289, 1-(5-(4-(2-fluoropropyl)-1H-1,2,3-triazol-1-yl)-4-(isopropylamino)pyridin-2-yl)-1H-pyrazolo [3,4-b]pyridine-5-carbonitrile]: the IC50 on IRAK4 amounted to 6 nM. The compound also yielded an EC50 in data set [1] (Homo sapiens) of 200 nM. The compound also registered a Papp at 2 h, 3 µM in data set [2] of 47.4 ×10⁻⁶ cm/s.
On the same counts, the results for `CC(C)Nc1cc(-n2ncc3cc(C#N)cnc32)ncc1-c1cn(CC(=O)N2CCNCC2)nn1` [Example 192, 1-(4-(isopropylamino)-5-(1-(2-oxo-2-(piperazin-1-yl)ethyl)-1H-1,2,3-triazol-4-yl)pyridin-2-yl)-1H-pyrazolo[3,4-b]pyridine-5-carbonitrile] are 3 nM, 150 nM and below 1.5 ×10⁻⁶ cm/s.
Take `CCn1cc(-c2cnc(-n3ncc4cc(C#N)cnc43)cc2NC(C)C)nn1` [Example 37, 1-(5-(1-ethyl-1H-1,2,3-triazol-4-yl)-4-(isopropylamino)pyridin-2-yl)-1H-pyrazolo[3,4-b]pyridine-5-carbonitrile]: the 50% inhibitory concentration (IC50) at IRAK4 was 5 nM. In data set [1] (Homo sapiens), this compound returned an EC50 of 160 nM. The Papp at 2 h, 3 µM in data set [2] turned out to be 33.9 ×10⁻⁶ cm/s.
On the same counts, the results for `CC(C)Nc1cc(-n2ncc3cc(C#N)cnc32)ncc1-n1cc(C2CCN(S(C)(=O)=O)CC2)nn1` [Example 361, 1-(4-(isopropylamino)-5-(4-(1-(methylsulfonyl)piperidin-4-yl)-1H-1,2,3-triazol-1-yl)pyridin-2-yl)-1H-pyrazolo[3,4-b]pyridine-5-carbonitrile] are 7 nM, 360 nM and 5.6 ×10⁻⁶ cm/s.
The matching figures for `CC(C)Nc1cc(-n2ncc3cc(C#N)cnc32)ncc1-c1cn([C@@H]2CCN(S(C)(=O)=O)C[C@H]2F)nn1` (single isomer, unassigned) [Example 210, 1-(5-(1-((trans)-3-fluoro-1-(methylsulfonyl)piperidin-4-yl)-1H-1,2,3-triazol-4-yl)-4-(isopropylamino)pyridin-2-yl)-1H-pyrazolo[3,4-b]pyridine-5-carbonitrile]: 2 nM, 510 nM and 4.3 ×10⁻⁶ cm/s.
On the same counts, the results for `CCCn1cc(-c2cnc(-n3ncc4cc(C#N)cnc43)cc2NC(C)C)nn1` [Example 30, 1-(4-(isopropylamino)-5-(1-propyl-1H-1,2,3-triazol-4-yl)pyridin-2-yl)-1H-pyrazolo[3,4-b]pyridine-5-carbonitrile] are 4 nM, 160 nM and 22.5 ×10⁻⁶ cm/s.
On to `CC(C)Nc1cc(-n2ncc3cc(C#N)cnc32)ncc1-c1cn([C@H](C)[C@H](C)O)nn1` (single isomer, unassigned) [Example 88], for which the IC50 on IRAK4 worked out at 5 nM. Besides, in data set [1] (Homo sapiens), a half-maximal response (EC50) required 1290 nM. In addition, in data set [2], the Papp at 2 h, 3 µM was found to be 7.1 ×10⁻⁶ cm/s.

The IC50 is the concentration that gives 50% inhibition. Broadly, the EC50 is the midpoint of the concentration-response curve. For orientation: Papp means the rate of passage across a membrane or cell layer, normalised by area and donor concentration. A lower Papp goes with slow passage.

Values taken from US10294229B2, “Heteroaryl substituted aminopyridine compounds” (BRISTOL-MYERS SQUIBB COMPANY, priority 2015, dated 2019).
